Assay results as given in US20250255795A1, “CYCLIC PEROXIDE, OXIDATION REACTION PRODUCT, METHOD FOR PRODUCING OXIDATION REACTION PRODUCT, AND APPLICATIONS OF THESE” (MEDIPLUS PHARMA, INC., priority 2021, published 2025).
Blank lines part the entries; values can stand above or below the compound they belong to.

Key:
[1] = target: T1, TRPM2 (Homo sapiens, UniProt O94759); assay: TRP channel activation, intracellular Ca2+ in TRPM2 (expressing cells); type: cell-based
T1 construct: expressed in transfected cells
T1 sequence (O94759 whole entry): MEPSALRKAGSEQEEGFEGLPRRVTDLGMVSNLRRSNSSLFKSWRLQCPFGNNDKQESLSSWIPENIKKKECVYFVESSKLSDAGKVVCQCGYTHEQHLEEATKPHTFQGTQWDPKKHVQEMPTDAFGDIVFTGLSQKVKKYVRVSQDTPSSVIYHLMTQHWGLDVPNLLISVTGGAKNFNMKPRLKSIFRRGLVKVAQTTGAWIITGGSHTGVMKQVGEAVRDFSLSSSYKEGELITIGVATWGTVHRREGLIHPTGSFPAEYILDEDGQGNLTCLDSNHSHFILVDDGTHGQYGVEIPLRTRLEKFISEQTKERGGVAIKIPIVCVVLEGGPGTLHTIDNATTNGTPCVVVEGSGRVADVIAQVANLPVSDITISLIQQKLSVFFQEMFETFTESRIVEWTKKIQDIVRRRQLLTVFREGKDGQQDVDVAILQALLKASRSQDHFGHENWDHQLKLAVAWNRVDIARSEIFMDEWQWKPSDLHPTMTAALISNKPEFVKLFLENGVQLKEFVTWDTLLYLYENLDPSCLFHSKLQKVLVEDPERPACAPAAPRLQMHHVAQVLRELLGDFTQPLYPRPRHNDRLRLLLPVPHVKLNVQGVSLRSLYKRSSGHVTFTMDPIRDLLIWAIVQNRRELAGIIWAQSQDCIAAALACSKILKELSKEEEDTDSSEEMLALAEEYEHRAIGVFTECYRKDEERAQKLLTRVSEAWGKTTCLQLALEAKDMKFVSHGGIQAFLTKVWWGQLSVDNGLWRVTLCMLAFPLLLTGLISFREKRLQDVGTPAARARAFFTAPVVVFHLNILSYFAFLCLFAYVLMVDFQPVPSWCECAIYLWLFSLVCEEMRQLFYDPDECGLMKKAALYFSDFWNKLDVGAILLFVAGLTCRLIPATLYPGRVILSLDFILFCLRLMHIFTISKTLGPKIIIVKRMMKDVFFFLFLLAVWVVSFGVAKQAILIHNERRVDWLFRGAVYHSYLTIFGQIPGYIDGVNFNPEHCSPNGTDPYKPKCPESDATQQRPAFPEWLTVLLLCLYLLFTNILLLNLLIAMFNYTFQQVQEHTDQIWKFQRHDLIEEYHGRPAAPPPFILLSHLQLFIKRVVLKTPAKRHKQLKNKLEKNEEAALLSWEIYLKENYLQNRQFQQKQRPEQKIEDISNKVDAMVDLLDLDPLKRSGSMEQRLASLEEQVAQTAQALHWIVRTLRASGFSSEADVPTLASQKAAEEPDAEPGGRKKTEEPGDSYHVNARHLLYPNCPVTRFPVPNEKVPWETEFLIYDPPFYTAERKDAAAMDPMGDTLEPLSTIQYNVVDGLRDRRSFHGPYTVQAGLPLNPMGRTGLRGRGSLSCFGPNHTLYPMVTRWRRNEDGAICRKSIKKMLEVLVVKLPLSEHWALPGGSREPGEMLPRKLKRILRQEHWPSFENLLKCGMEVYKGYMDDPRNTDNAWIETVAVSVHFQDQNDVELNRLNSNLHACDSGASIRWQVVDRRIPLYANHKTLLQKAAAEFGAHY
Source text: The TLC1 spot product produced in “(1) Production of Oxidation Reaction Product Containing Cyclic Peroxide According to the First Mode of the Present Invention” was directly used without separation (purification) to examine the TRP channel activation. Hereinafter, […]. Hereinafter, “OG” indicates a product formed by ozone-oxidizing glycerin with an oxygen generator (ozonized glycerin). In production of “OG”, the ozone oxidation of glycerin with an oxygen generator was performed with use of a gas having an ozone concentration of approximately 37000 ppm, which had been obtained through a process in which a high concentration of oxygen (oxygen concentration: 70% or more) was given to air with an oxygen generator and the oxygen was ozonized via an ozone generator, under Conditions A below. Hereinafter, “LOG” indicates a product formed by further oxidizing “OG”. Production of “LOG” by oxidation of “OG” was performed with use of a gas having an ozone concentration of approximately 37000 ppm, which had been obtained through a process in which oxygen from an oxygen tank (oxygen concentration: 99% or more) was ozonized via an ozone generator, under Conditions B below. […]

[2] = general statement; cited from earlier work
[3] = test system: melanin in skin; assay: whitening action, melanin measurement (Mexameter MX18) on half-face application; type: in vivo, human; details: inferred from loss of activity after heat treatment of ozonized glycerin
Description: Forty-eight healthy individuals (females, 41 years or older and 59 years or younger) participated as test subjects. The test subjects were well informed with description documents (including a consent form) in advance, and a written consent was acquired from each test subject.
For examination of the whitening action, a test product of Example 2-1A, a test product of Example 2-1B, a test product of Reference Example 2-1A, and a test product of Reference Example 2-1B were prepared.
The test subjects were divided into two groups below (24 test subjects in each group). Each test subject took two pushes (approximately 1 ml) of a test product on the hands and applied the test product to a specified half of the face after every face washing performed twice per day (morning and night). […]
Each test subject was subjected to quintuple melanin measurement for freckle sites in the left and right cheeks on the day of initiation of application of test products (week 0) and 4 weeks and 8 weeks after the initiation of application. […] In addition, the changes of melanin measurement values from those at the initiation of the test were determined. Statistical test was carried out with Student t-test, and cases with p<0.05 were determined to be significant differences. […]

[4] = positive control, known activity; cited from earlier work

- TRP channel activation (net intracellular Ca2+ increase rates) ([1]; 10% by mass aqueous solution, FIG. 1-24): high TRP channel activation
SMILES: OCC(O)CO [G, glycerin]
- TRP channel activation (net intracellular Ca2+ increase rates) ([1]; concentrations (% by mass) of the aqueous solutions changed, FIG. 1-25): higher TRP channel activation at high concentrations

SMILES: C[C@@H]1CC[C@H]2[C@@H](C)C(=O)O[C@@H]3O[C@@]4(C)CC[C@@H]1[C@]32OO4 [artemisinin]
- water solubility and liposolubility [2]: neither water-soluble nor liposoluble

SMILES: OCC(O)C1OOCOCC1O (single isomer, unassigned) [compound of the chemical formula (1)]
- whitening action (inferred active ingredient) [3]: active ingredient responsible for the whitening action

SMILES: O=C(C[n+]1ccsc1)c1ccccc1.[Br-] [PTB, N-phenacylthiazolium bromide]
- cleavage activity to crosslinking structures formed by AGEs [4]: known to have cleavage activity to crosslinking structures formed by AGEs
